This experiment concerns organisms of the skin flora (Corynebacterium minutissimum, Streptococcus mitis, Staphylococcus epidermidis, Staphylococcus galinarum, Propionibacterium acnes …). The experiment can be described thus: Investigation of single ingredients for influence on the growth of the organisms of the skin flora. It is filed as cell-based. The conditions noted are these: single ingredient, result in words. The text has this:
The surprising positive effect of the above-described substances or substance groups on the growth of the microorganisms of the skin flora has been confirmed by investigations on microorganisms of the skin flora. Specifically, this involved analyzing the growth of the following species: Corynebacterium minutissimum, Streptococcus mitis, Staphylococcus epidermidis, Staphylococcus galinarum, Propionibacterium acnes, and Malassezia furfur, Malassezia sympodialis, Malassezia globosa and Malassezia restricta. The positive effect can be attributed to the fact that the microorganisms present on the skin cannot make use of the substances investigated. […] Investigations on Corynebacterium minutissimum, Streptococcus mitis, Staphylococcus epidermidis, Staphylococcus galinarum, Propionibacterium acnes, and Malassezia furfur, Malassezia sympodialis, Malassezia globosa and Malassezia restricta have confirmed this effect. The positive effect of these emulsifiers in terms of their influence on the growth of organisms of the skin flora has been confirmed by investigations on Corynebacterium minutissimum, Streptococcus mitis, Staphylococcus epidermidis, Staphylococcus galinarum, Propionibacterium acnes, and Malassezia furfur, Malassezia sympodialis, Malassezia globosa and Malassezia restricta. […]

Caprylic/Capric Triglyceride: the “influence on the growth of the organisms of the skin flora” value is “No growth-promoting influence was detected”.

Values taken from patent publication US20220192935A1, “COMPOSITION FOR A TOPICAL APPLICATION ON THE SKIN” (Biodermic Health & Beauty GmbH & Co. KG, priority 2019, published 2022).
